Laboratory results taken from ChEMBL document CHEMBL1146643, “Potential hypotensive agents: synthesis and hypotensive activity of oxime ethers derived from 1-naphthoxepines and related compounds” (2004).

Experiments:
Type in all cases: functional
Settings in all cases: route intravenous
Felis catus [1] = test: Fall of blood pressure in anaesthetized cat at a dose of 5 mg/kg intravenously
Felis catus [2] = test: Percent of maximum effect in anaesthetized cat at a dose of 1 mg/kg intravenously
Felis catus [3] = test: Percent of maximum effect in anaesthetized cat at a dose of 5 mg/kg intravenously
Felis catus [4] = test: Fall of blood pressure in anaesthetized cat at a dose of 1 mg/kg intravenously

Row | Compound | Decrease in blood pressure (Felis catus [1]) [mmHg] | Max effect (Felis catus [2]) [%] | Max effect (Felis catus [3]) [%] | Decrease in blood pressure (Felis catus [4]) [mmHg]
1 | CC(C)(C)NCC(O)CO/N=C1\CCCOc2c1ccc1ccccc21 (stereo not drawn) | 80 | 40 | 55 | 60
2 | CCCNCC(O)CO/N=C1\CCCOc2ccc3ccccc3c21 (stereo not drawn) | 16 | 17 | 17 | 18
3 | CC(C)(C)NCC(O)CO/N=C1\CCCOc2ccc3ccccc3c21 (stereo not drawn) | 50 | 21 | 41 | 18
4 | CCCNCC(O)CO/N=C1\CCCOc2c1ccc1ccccc21 (stereo not drawn) | 60 | 21 | 50 | 20
5 | CC(C)NCC(O)CO/N=C1\CCCOc2ccc3ccccc3c21 (stereo not drawn) | 80 | 7 | 70 | 10
6 | CC(C)NCC(O)CO/N=C1\CCCOc2c1ccc1ccccc21 (stereo not drawn) | 110 | 14 | 88 | 20
7 | CC(C)NCC(O)COc1cccc2ccccc12 (stereo not drawn) [PROPRANOLOL] | 50 | 35 | 41 | 46
